According to ChEMBL document CHEMBL4507268 (2021):

Columns and labels:
[1] = target: Protein-tyrosine kinase 2-beta (Homo sapiens) (UniProt Q14289); conditions: Compound concentration 1000.0 nM
[2] = target: T1, Serine/threonine-protein kinase D2 (Homo sapiens) (UniProt Q9BZL6); conditions: Compound concentration 1000.0 nM
T1 sequence (whole entry): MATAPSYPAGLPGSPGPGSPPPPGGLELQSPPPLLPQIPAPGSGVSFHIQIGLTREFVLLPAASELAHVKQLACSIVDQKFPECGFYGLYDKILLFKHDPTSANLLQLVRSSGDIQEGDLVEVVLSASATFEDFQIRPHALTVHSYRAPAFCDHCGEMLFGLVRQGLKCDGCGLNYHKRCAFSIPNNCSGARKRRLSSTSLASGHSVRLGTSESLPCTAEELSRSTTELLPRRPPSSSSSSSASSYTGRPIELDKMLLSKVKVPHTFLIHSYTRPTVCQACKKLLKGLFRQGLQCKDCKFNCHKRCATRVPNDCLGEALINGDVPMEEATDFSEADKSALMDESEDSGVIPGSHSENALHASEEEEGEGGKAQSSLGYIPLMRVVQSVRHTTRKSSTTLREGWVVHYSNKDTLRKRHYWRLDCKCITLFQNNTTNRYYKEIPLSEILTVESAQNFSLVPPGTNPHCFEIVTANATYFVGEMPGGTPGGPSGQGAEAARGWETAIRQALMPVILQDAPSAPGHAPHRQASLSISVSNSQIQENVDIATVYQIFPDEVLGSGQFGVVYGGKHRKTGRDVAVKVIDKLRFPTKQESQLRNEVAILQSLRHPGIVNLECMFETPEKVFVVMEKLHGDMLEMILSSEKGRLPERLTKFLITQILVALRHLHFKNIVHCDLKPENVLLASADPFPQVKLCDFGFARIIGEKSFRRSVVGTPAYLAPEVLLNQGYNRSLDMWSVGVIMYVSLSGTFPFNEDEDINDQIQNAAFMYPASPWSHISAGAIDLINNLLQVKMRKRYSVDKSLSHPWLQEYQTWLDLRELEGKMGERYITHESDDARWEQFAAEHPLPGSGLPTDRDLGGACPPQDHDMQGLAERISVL

[3] = target: T2, Serine/threonine-protein kinase D1 (Homo sapiens) (UniProt Q15139); conditions: Compound concentration 1000.0 nM
T2 sequence (whole entry): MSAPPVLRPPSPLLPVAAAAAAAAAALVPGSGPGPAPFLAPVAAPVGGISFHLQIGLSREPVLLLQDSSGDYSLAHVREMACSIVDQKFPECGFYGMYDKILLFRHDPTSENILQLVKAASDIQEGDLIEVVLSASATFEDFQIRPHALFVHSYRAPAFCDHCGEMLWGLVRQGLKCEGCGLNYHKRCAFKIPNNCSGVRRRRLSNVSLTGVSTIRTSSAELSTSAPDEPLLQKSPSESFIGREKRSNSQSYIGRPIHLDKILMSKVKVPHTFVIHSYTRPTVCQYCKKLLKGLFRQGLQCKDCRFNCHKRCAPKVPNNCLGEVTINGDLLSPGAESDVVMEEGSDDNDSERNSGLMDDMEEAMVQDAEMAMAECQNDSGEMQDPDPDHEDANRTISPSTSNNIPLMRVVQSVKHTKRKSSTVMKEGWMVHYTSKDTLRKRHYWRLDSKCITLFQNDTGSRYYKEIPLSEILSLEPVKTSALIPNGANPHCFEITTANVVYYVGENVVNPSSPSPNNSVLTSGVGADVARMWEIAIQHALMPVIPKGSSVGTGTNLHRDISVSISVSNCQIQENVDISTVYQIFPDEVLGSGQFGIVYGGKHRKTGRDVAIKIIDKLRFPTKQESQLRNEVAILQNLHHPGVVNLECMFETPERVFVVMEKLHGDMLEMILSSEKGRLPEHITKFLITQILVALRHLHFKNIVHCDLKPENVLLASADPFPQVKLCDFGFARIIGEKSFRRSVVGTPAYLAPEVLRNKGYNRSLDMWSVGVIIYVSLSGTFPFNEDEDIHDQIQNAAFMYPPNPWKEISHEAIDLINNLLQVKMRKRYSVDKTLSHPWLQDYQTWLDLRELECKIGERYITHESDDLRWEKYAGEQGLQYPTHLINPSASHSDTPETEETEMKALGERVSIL

[4] = target: GABA-A receptor; anion channel (Rattus norvegicus) (UniProt O09028+P15431+P18506+P18508+P19969+P20236+P23574+P23576+P28471+P28473+P30191+P62813+P63079+P63138+Q91ZM7+Q9ES14); conditions: Compound concentration 10.0 uM
[5] = target: Cyclin-dependent kinase 4 (Homo sapiens) (UniProt P11802); conditions: Compound concentration 1000.0 nM
Cyclin-dependent kinase 4 (Homo sapiens), sequence (P11802 whole entry, canonical isoform): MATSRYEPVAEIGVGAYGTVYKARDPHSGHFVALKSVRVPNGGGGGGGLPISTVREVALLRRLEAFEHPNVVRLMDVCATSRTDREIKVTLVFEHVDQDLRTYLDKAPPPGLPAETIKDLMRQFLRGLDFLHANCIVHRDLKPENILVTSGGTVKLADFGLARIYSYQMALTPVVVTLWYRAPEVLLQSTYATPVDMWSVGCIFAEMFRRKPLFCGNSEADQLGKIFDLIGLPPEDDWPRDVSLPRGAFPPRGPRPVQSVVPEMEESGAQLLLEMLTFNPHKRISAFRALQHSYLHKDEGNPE

[6] = tested on: Phosphatidylinositol 4,5-bisphosphate 3-kinase catalytic subunit alpha isoform (Homo sapiens), P42336 [C420R]; conditions: Compound concentration 1000.0 nM
[7] = target: Macrophage-stimulating protein receptor (Homo sapiens) (UniProt Q04912); conditions: Compound concentration 1000.0 nM
Macrophage-stimulating protein receptor (Homo sapiens), sequence (Q04912 25-304 limits assumed): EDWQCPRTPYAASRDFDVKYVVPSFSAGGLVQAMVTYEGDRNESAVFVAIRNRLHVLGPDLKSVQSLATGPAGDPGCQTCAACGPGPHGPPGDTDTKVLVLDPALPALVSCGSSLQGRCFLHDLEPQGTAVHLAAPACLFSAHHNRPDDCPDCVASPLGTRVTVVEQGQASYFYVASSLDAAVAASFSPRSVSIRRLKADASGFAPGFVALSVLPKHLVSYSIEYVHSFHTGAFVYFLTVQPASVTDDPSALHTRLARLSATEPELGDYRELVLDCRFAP
Macrophage-stimulating protein receptor (Homo sapiens), sequence (Q04912 310-1400 limits assumed): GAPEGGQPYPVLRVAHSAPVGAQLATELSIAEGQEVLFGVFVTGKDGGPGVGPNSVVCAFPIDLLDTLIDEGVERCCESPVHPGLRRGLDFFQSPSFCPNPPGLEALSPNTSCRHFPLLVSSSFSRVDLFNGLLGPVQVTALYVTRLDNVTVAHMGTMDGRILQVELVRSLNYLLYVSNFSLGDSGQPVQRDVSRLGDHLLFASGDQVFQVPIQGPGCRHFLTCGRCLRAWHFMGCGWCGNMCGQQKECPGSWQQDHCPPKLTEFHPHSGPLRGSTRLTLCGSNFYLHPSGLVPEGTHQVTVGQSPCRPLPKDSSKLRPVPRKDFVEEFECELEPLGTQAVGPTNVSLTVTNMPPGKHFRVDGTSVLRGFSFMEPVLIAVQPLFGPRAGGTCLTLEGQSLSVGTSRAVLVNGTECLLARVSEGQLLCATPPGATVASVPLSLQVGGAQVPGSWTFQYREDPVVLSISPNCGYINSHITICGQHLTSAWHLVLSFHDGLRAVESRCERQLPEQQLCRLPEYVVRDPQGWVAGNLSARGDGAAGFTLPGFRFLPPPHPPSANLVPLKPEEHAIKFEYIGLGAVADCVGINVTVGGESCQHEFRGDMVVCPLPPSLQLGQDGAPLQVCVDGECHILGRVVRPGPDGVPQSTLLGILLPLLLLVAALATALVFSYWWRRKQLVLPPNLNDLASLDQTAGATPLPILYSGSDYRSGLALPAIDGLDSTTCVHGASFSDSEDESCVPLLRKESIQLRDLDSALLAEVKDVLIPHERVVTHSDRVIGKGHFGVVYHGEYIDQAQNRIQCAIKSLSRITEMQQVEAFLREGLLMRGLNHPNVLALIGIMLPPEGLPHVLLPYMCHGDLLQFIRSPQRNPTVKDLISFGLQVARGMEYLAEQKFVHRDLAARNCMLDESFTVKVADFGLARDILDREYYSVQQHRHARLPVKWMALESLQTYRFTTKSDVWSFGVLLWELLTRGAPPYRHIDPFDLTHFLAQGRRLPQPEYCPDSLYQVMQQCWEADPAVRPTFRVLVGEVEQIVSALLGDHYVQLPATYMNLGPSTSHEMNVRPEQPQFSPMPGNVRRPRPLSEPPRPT

[8] = target: Tyrosine-protein kinase JAK1 (Homo sapiens) (UniProt P23458); conditions: Compound concentration 1000.0 nM
Tyrosine-protein kinase JAK1 (Homo sapiens), sequence (P23458 whole entry): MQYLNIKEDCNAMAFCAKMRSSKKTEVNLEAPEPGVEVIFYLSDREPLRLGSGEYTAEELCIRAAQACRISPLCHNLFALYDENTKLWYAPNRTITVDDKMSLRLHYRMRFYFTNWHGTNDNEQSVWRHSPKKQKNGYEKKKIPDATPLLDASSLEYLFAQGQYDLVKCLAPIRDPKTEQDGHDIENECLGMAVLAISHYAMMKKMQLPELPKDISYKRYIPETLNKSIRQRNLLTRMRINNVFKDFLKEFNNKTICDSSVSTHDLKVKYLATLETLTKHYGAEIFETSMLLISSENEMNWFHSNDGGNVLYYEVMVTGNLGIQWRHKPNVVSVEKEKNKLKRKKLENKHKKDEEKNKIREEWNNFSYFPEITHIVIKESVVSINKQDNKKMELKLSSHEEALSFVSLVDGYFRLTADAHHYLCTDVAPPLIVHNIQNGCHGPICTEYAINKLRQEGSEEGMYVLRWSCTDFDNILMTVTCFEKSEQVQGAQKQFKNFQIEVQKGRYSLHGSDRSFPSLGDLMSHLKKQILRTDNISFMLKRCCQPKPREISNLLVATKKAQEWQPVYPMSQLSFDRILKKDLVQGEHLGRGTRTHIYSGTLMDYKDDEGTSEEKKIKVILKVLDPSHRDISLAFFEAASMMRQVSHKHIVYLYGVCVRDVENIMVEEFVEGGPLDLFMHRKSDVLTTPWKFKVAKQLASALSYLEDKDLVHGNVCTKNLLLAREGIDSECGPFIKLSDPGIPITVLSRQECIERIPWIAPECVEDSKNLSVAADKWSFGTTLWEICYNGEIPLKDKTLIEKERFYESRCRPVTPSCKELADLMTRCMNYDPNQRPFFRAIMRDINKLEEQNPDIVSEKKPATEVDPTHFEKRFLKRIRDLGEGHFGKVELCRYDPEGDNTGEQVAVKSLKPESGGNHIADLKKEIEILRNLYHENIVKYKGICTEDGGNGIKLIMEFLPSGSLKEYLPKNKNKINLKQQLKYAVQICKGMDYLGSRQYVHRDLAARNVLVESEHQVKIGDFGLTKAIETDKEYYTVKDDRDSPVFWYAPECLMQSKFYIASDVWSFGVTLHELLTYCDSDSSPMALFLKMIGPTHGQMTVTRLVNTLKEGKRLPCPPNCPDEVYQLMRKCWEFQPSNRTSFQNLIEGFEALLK

[9] = target: Mast/stem cell growth factor receptor Kit (Homo sapiens) (UniProt P10721); conditions: Compound concentration 1000.0 nM
Mast/stem cell growth factor receptor Kit (Homo sapiens), sequence (P10721 whole entry): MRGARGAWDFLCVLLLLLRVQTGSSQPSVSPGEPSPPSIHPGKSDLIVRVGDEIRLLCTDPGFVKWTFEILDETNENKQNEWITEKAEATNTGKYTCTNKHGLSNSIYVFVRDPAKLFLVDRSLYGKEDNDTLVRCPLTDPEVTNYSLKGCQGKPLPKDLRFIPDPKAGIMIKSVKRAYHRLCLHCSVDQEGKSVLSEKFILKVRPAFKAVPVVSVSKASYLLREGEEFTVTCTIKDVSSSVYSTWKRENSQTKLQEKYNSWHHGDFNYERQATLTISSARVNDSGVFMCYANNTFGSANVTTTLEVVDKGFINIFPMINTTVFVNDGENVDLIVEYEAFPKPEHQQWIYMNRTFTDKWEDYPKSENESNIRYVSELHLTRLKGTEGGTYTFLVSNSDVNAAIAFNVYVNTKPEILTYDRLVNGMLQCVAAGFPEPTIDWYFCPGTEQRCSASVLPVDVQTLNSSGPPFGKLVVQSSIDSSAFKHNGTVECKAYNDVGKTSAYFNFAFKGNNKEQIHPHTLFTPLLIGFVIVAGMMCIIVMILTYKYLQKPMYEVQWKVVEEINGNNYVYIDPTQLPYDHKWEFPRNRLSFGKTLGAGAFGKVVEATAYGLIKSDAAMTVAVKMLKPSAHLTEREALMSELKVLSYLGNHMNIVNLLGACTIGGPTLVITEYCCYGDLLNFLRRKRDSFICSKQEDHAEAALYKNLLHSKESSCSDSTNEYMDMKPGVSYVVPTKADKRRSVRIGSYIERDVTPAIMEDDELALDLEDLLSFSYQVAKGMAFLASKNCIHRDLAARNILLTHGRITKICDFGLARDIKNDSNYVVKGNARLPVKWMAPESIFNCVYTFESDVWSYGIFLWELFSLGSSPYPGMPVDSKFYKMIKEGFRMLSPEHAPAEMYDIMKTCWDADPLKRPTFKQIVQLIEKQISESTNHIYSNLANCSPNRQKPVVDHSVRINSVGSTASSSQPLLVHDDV

[10] = target: Serine/threonine-protein kinase WNK3 (Homo sapiens) (UniProt Q9BYP7); conditions: Compound concentration 1000.0 nM
[11] = tested on: Receptor-type tyrosine-protein kinase FLT3 (Homo sapiens), P36888 [UNDEFINED MUTATION]; conditions: Compound concentration 1000.0 nM

Protein-tyrosine kinase 2-beta (Homo sapiens), sequence (Q14289 whole entry, looked up): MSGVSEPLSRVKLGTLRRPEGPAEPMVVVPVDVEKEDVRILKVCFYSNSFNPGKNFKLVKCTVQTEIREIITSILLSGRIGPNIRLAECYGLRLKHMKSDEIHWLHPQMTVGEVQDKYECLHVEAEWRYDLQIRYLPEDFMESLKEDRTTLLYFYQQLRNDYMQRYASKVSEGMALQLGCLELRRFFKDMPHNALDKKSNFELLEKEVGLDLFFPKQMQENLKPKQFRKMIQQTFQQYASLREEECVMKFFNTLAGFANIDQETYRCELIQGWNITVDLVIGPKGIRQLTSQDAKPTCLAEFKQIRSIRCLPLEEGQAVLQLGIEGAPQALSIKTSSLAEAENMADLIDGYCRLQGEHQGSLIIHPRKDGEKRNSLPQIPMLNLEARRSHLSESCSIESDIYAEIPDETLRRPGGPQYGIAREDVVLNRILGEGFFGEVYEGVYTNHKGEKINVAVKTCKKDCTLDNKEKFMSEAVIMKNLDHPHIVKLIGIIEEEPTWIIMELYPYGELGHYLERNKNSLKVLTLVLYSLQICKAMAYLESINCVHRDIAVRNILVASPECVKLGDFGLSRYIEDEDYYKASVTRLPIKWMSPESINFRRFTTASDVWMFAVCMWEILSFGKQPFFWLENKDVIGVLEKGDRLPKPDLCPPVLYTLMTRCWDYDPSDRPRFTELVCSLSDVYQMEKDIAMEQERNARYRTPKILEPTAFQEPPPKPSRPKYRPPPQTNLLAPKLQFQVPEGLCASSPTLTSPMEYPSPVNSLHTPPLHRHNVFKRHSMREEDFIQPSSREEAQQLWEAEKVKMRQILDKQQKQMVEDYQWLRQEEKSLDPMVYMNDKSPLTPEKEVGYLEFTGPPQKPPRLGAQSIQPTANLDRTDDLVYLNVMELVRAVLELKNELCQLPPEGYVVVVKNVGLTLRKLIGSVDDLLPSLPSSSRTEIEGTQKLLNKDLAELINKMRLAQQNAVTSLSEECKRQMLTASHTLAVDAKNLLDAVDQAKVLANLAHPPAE

Cc1nc(C2CCN(C(=O)c3ccc(OC(F)(F)F)cc3N)CC2)c2ncc(N3CCN(C)CC3)cc2n1 [BAY-693]
inactive: residual activity [1] 100% | residual activity [2] 92% | residual activity [3] 79% | inhibition [4] 15% | residual activity [5] 100% | residual activity [6] 86% | residual activity [7] 82% | residual activity [8] 95% | residual activity [9] 76% | residual activity [10] 94% | residual activity [11] 86%

CN1CCN(c2cnc3c(C4CCN(C(=O)c5ccc(OC(F)(F)F)cc5N)CC4)ncnc3c2)CC1 [BAY-885]
inactive: residual activity [1] 100% | residual activity [2] 100% | residual activity [3] 85% | inhibition [4] 21.8% | residual activity [5] 100% | residual activity [6] 94% | residual activity [7] 90% | residual activity [8] 100% | residual activity [9] 85% | residual activity [10] 100% | residual activity [11] 93%
